Results on 1 substance are retold here after patent US10941399B2, “Methods and compositions for gene-specific demethylation by DNA methyltransferase (DNMT)-RNA interaction” (Beth Israel Deaconess Medical Center, Inc., priority 2011, dated 2021).

This data set deals with DNMT1 (Homo sapiens, UniProt P26358). Put plainly: Nuclear RNA immunoprecipitation (RIP) with anti-DNMT1 antibody. The class given is binding. The arrangement: endogenous in cells; host or cells: HL-60 cells (nuclei); Similar results were obtained in U937 cells. The note with it: HL-60 cells. On the procedure: Nuclear RNA immunoprecipitation (nRIP): nRIP performed as described by Ebralidze et al. (Science 303:383-387, 2004) with some modifications. Crosslinked nuclei were collected as follows: About 60×10^6 HL-60 cells were crosslinked with 1% formaldehyde (formaldehyde solution, freshly made 50 mM HEPES-KOH; 100 mM NaCl; 1 mM EDTA; 0.5 mM EGTA; 11% formaldehyde) for 10 minutes at room temperature. Crosslinking was halted by adding 1/10th volume of 2.66 M Glycine, kept for 5 minutes at room temperature and 10 minutes on ice. Cell pellets were washed twice with ice-cold PBS (freshly supplemented with 1 mM PMSF) and then resuspended in cell lysis buffer (volume=4 mL, 1× Buffer of 10 mM Tris pH 7.4; 10 mM NaCl; 0.5% NP-40, freshly supplemented with protease inhibitors (protease inhibitors cocktail: Roche Applied Science, Cat. No. 1836153, 1 tablet with 375 μL H2O; add as ×100), 1 mM PMSF, and 2 mM vanadyl complex (NEB)). Cells were incubated at 0° C. for 10-15 minutes and homogenized by Dounce (10 strokes pestle A and 40 strokes pestle B). Nuclei were recovered by centrifugation at 2,000 rpm for 10 minutes at 4° C. Nuclei were resuspended in 3 ml 1× Resuspension Buffer (50 mM HEPES-NaOH, pH 7.4; 10 mM MgCl2) supplemented with 1 mM PMSF and 2 mM vanadyl complex. […]
Sequence of DNMT1 (P26358 whole entry): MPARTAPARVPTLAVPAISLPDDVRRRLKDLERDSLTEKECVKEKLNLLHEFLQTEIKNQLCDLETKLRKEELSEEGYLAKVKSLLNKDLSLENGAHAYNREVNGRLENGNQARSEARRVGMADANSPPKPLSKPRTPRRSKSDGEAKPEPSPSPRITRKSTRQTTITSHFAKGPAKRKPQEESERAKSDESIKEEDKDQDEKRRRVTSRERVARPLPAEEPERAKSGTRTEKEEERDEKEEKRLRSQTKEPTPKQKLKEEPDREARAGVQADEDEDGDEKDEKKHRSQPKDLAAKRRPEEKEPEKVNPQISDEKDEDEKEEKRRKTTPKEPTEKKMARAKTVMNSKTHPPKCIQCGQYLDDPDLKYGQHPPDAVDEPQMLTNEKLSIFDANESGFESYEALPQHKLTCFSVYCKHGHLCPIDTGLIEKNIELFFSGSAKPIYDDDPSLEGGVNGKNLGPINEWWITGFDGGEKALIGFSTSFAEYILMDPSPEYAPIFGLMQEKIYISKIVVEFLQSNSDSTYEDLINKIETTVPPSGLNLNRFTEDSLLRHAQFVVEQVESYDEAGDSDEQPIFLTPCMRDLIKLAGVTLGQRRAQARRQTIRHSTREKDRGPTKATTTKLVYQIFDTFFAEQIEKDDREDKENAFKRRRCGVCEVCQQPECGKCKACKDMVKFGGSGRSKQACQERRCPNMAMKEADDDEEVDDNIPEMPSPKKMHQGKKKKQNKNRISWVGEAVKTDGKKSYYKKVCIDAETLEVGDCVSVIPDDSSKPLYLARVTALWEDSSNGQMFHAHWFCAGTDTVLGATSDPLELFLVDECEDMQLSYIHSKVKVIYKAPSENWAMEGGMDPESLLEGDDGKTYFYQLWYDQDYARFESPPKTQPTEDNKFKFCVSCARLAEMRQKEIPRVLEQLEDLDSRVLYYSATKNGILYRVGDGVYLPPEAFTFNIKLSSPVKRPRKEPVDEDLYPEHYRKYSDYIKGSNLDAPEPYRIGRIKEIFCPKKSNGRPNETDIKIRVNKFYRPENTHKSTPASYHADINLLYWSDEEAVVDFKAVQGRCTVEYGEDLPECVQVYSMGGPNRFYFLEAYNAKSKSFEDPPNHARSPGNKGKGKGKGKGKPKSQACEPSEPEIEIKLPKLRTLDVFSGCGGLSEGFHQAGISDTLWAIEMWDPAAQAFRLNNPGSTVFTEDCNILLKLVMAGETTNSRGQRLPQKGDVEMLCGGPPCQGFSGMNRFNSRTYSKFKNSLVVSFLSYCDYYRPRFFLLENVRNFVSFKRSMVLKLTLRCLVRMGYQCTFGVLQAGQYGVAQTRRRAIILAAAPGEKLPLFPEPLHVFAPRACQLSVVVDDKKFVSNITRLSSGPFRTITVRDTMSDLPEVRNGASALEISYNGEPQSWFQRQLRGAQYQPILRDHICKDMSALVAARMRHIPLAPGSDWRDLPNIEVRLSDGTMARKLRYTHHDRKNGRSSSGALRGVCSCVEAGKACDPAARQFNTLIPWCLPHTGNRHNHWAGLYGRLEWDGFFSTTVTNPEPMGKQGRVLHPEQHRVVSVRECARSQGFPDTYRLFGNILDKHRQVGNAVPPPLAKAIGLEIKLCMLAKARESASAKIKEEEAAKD

With “ecRNA: endogenous ~5 kb non-polyadenylated nuclear extra-coding transcript of the C/EBPa locus (SEQ ID NO:8)”, the “enrichment in DNMT1-RNA precipitates compared to IgG control” value is recorded as > 60 fold.
